Measurements from US7563800B2, “Substituted pyrazolo[3,4-D]pyrimidines as p38 map kinase inhibitors” (Roche Palo Alto LLC, priority 2006, dated 2009).

How the values were obtained:
p38 MAP kinase = molecular target: T1, p38 MAP kinase (Homo sapiens, UniProt Q16539); assay: p38 (MAP) kinase in vitro assay; format: biochemical; details: transfer of γ-phosphate from γ-33P-ATP to Myelin Basic Protein; phosphorylated recombinant p38 MAP kinase
T1 construct: made in house; host or cells: E. coli (co-expressed with SEK-1 and MEKK)
Protocol: This example illustrates a p38 (MAP) kinase in vitro assay useful for evaluating the compounds of the invention.
The p38 MAP kinase inhibitory activity of compounds of this invention in vitro was determined by measuring the transfer of the γ-phosphate from γ-^33P-ATP by p-38 kinase to Myelin Basic Protein (MBP), using a minor modification of the method described in Ahn, et al., J. Biol. Chem. 266:4220-4227 (1991).
The phosphorylated form of the recombinant p38 MAP kinase was co-expressed with SEK-1 and MEKK in E. Coli (see, Khokhlatchev, et al., J. Biol. Chem. 272:11057-11062 (1997)) and then purified by affinity chromatography using a Nickel column.
The phosphorylated p38 MAP kinase was diluted in kinase buffer (20 mM 3-(N-morpholino)propanesulfonic acid, pH 7.2, 25 mM β-glycerol phosphate, 5 mM ethylene glycol-bis(beta-aminoethyl ether)-N,N,N′,N′-tetraacetic acid, 1 mM sodium ortho-vanadate, 1 mM dithiothreitol, 40 mM magnesium chloride). Test compound dissolved in DMSO or only DMSO (control) was added and the samples were incubated for 10 min at 30° C. The kinase reaction was initiated by the addition of a substrate cocktail containing MBP and γ-^33P-ATP. […] The phosphorylated MBP was then separated from the residual γ-^33P-ATP using a phosphocellulose membrane (Millipore, Bedfrod, Mass.) and quantitated using a scintillation counter (Packard, Meriden, Conn.).

T1 sequence (Q16539 whole entry): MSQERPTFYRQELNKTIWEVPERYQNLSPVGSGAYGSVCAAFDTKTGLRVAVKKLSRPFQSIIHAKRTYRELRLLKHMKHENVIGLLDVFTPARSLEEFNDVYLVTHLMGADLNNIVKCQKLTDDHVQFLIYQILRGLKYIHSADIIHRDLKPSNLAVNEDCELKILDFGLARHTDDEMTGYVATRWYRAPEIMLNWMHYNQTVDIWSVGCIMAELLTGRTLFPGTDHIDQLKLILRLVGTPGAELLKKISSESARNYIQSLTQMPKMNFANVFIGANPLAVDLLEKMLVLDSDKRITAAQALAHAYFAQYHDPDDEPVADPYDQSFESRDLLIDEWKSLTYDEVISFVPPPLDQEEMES

IC50 (p38 MAP kinase): ~0.165 µM
melting point: 143.7 to 145 °C
Compound: CC(C)Oc1n[nH]c2nc(Oc3ccc(F)cc3F)ncc12 [Compound 1, 6-(2,4-Difluoro-phenoxy)-3-isopropoxy-1H-pyrazolo[3,4-d]pyrimidine]
